Experimental findings from US8551999B2, “Heterocyclic compound and pharmaceutical composition thereof” (Otsuka Pharmaceutical Co., Ltd., priority 2007, dated 2013) are described below.

Usually melting point stands for the temperature of the solid-liquid transition. `CN(C(=O)c1ccc(C(F)(F)F)cc1F)c1ccc(Oc2ccc3cc(C(=O)N4CCN(Cc5ccc(OCC(F)(F)F)cc5)CC4)n(C)c3c2)nc1.Cl` came in with a melting point of 234.5 to 235.8 °C. As to `Cl.Cn1c(C(=O)N2CCN(Cc3ccc(OCC(F)(F)F)cc3)CC2)cc2ccc(Oc3ccc(NC(=O)c4ccc(C(F)(F)F)c(F)c4)cn3)cc21`, the melting point lay within 259 to 263.2 °C. Turning to `Cl.Cn1c(C(=O)N2CCN(Cc3ccc(OCC(F)(F)F)cc3)CC2)cc2ccc(Oc3ncc(NC(=O)c4ccc(C(F)(F)F)cc4)cn3)cc21`, the melting point was 250.8 to 254.2 °C. As for `Cl.Cn1c(C(=O)N2CCN(Cc3ccc(OCC(F)F)cc3)CC2)cc2ccc(Oc3ncc(NC(=O)c4ccc(C(F)(F)F)cc4)cn3)cc21`, the melting point was in the range of 251.4 to 253.5 °C. Compound `CC(C)Oc1ccc(CN2CCN(C(=O)c3cc4ccc(Oc5ncc(NC(=O)c6ccc(C(F)(F)F)cc6)cn5)cc4n3C)CC2)cc1.Cl` returned a melting point of 249.8 to 251 °C. In the case of `Cl.Cn1c(C(=O)N2CCN(Cc3ccc(OC(F)F)cc3)CC2)cc2ccc(Oc3ncc(NC(=O)c4ccc(C(F)(F)F)cc4)cn3)cc21`, the melting point is 247.7 to 249.8 °C. The compound `Cc1ccc(C(=O)N(C)c2ccc(Oc3ccc4cc(C(=O)N5CCN(Cc6ccc(OCC(F)F)cc6)CC5)n(C)c4c3)nc2)cc1.Cl` came in with a melting point of 207.8 to 209.3 °C.

Compound `Cc1ccc(C(=O)N(C)c2ccc(Oc3ccc4cc(C(=O)N5CCN(Cc6ccc(OC(C)C)cc6)CC5)n(C)c4c3)nc2)cc1.Cl` gave a melting point of 230.1 to 232 °C. `CCCOc1ccc(CN2CCN(C(=O)c3cc4ccc(Oc5ccc(N(C)C(=O)c6ccc(C)cc6)cn5)cc4n3C)CC2)cc1.Cl` displayed a melting point of 231.2 to 231.8 °C. The result for `CC(C)N(c1ccc(Oc2ccc3cc(C(=O)N4CCN(Cc5ccc(OCC(F)(F)F)cc5)CC4)n(C)c3c2)nc1)S(=O)(=O)c1ccc(Cl)c(Cl)c1.Cl` reads 232.8 to 235.6 °C. For `CCCOc1ccc(CN2CCN(C(=O)c3cc4ccc(Oc5ccc(N(C)C(=O)c6ccc(OC(F)F)cc6)cn5)cc4n3C)CC2)cc1.Cl`, the melting point was 226.9 to 229 °C. As for `CC(C)Oc1ccc(CN2CCN(C(=O)c3cc4ccc(Oc5ccc(N(C)C(=O)c6ccc(OC(F)F)cc6)cn5)cc4n3C)CC2)cc1.Cl`, the figure is 229.7 to 230.4 °C; as for `CN(c1ccc(Oc2ccc3cc(C(=O)N4CCN(Cc5ccc(OCC(F)(F)F)cc5)CC4)n(C)c3c2)nc1)S(C)(=O)=O.Cl`, 252.7 to 253.6 °C. `Cl.Cn1c(C(=O)N2CCN(Cc3ccc(OC(F)F)cc3)CC2)cc2ccc(Oc3ccc(NC(=O)c4ccc(OC(F)(F)F)cc4)cn3)cc21`: the melting point was 256.2 to 256.5 °C. In turn, `CCCCS(=O)(=O)N(C)c1ccc(Oc2ccc3cc(C(=O)N4CCN(Cc5ccc(OCC(F)(F)F)cc5)CC4)n(C)c3c2)nc1.Cl` had a melting point of 253.6 to 254.4 °C.

`CC(C)S(=O)(=O)N(C)c1ccc(Oc2ccc3cc(C(=O)N4CCN(Cc5ccc(OCC(F)(F)F)cc5)CC4)n(C)c3c2)nc1.Cl`: the melting point lay within 256.5 to 259.8 °C. In the case of `CN(c1ccc(Oc2ccc3cc(C(=O)N4CCN(Cc5ccc(OCC(F)(F)F)cc5)CC4)n(C)c3c2)nc1)S(=O)(=O)CC(F)(F)F.Cl`, the melting point was 243.4 to 244.4 °C. The compound `CN(c1ccc(Oc2ccc3cc(C(=O)N4CCN(Cc5ccc(OCC(F)(F)F)cc5)CC4)[nH]c3c2)nc1)S(=O)(=O)c1ccc(Cl)c(Cl)c1.Cl` registered a melting point of 225.2 to 229.3 °C. `Cc1cc(C(=O)Nc2ccc(Oc3ccc4cc(C(=O)N5CCN(Cc6ccc(OCC(F)(F)F)cc6)CC5)n(C)c4c3)nc2)ccc1Cl.Cl` displayed a melting point of 182.9 °C. Regarding `CC(C)CN1CCN(C(=O)c2cc3ccc(Oc4ccc(N(C)C(=O)c5ccc(C(F)(F)F)cc5)cn4)cc3n2C)CC1.Cl`, the melting point lay in the range of 253.1 to 254.5 °C. The compound `CC(C)CN1CCN(C(=O)c2cc3ccc(Oc4ccc(NC(=O)c5ccc(C(F)(F)F)cc5)cn4)cc3n2C)CC1.Cl` had a melting point of 270.2 to 272.2 °C. The result for `Cc1cc(C(F)(F)F)ccc1C(=O)Nc1ccc(Oc2ccc3cc(C(=O)N4CCN(Cc5ccc(OCC(F)(F)F)cc5)CC4)n(C)c3c2)nc1.Cl` reads 217.4 to 218.3 °C; that for `Cc1cc(C(F)(F)F)ccc1C(=O)Nc1ccc(Oc2ccc3cc(C(=O)N4CCN(Cc5ccc(OC(C)C)cc5)CC4)n(C)c3c2)nc1.Cl`, 197.7 to 199.3 °C. `Cc1cc(C(F)(F)F)ccc1C(=O)Nc1ccc(Oc2ccc3cc(C(=O)N4CCN(Cc5ccc6c(c5)OC(F)(F)O6)CC4)n(C)c3c2)nc1.Cl` returned a melting point of 207.9 to 211.5 °C.

Consider `Cc1cc(C(F)(F)F)ccc1C(=O)Nc1ccc(Oc2ccc3cc(C(=O)N4CCN(Cc5ccc(OC(F)F)cc5)CC4)n(C)c3c2)nc1.Cl`, for which the melting point lay in the range of 204.9 to 205.7 °C. In the case of `CN(C(=O)c1ccc(C(F)(F)F)cc1F)c1ccc(Oc2ccc3cc(C(=O)N4CCN(Cc5ccc(OC(F)F)cc5)CC4)n(C)c3c2)nc1.Cl`, the melting point is 228.7 to 230.4 °C. Take `CCCOc1ccc(CN2CCN(C(=O)c3cc4ccc(Oc5ccc(N(C)C(=O)c6ccc(C(F)(F)F)cc6F)cn5)cc4n3C)CC2)cc1.Cl`: the melting point was 247.1 to 249.2 °C. Regarding `Cc1ccc(S(=O)(=O)N(C)c2ccc(Oc3ccc4cc(C(=O)N5CCN(Cc6ccc7c(c6)OCO7)CC5)n(C)c4c3)nc2)cc1.Cl`, the melting point lay in the range of 242 to 249 °C. `Cc1ccc(S(=O)(=O)N(C)c2ccc(Oc3ccc4c(c3)cc(C(=O)N3CCN(Cc5ccc(OCC(F)(F)F)cc5)CC3)n4C)nc2)cc1.Cl` came in with a melting point of 239.1 to 239.8 °C.

Consider `CCCOc1ccc(CN2CCN(C(=O)c3cc4ccc(Oc5ccc(NC(=O)c6ccc(C(F)(F)F)cc6F)cn5)cc4n3C)CC2)cc1.Cl`, for which the melting point lay in the range of 264 to 266.3 °C. Regarding `CC(C)Oc1ccc(CN2CCN(C(=O)c3cc4ccc(Oc5ccc(NC(=O)c6ccc(C(F)(F)F)cc6F)cn5)cc4n3C)CC2)cc1.Cl`, the melting point was 267.6 to 268.2 °C.

Regarding `Cl.Cn1c(C(=O)N2CCN(Cc3ccc(OC(F)F)cc3)CC2)cc2ccc(Oc3ccc(NC(=O)c4ccc(C(F)(F)F)cc4F)cn3)cc21`, the melting point was 265.3 to 265.8 °C. Compound `Cl.Cn1c(C(=O)N2CCN(Cc3ccc(OC(CF)CF)cc3)CC2)cc2ccc(Oc3ccc(NC(=O)c4ccc(C(F)(F)F)cc4F)cn3)cc21` displayed a melting point of 267.3 to 267.7 °C. `CCN(C(=S)Nc1ccc(Cl)c(Cl)c1)c1ccc(Oc2ccc3c(c2)cc(C(=O)N2CCN(Cc4ccc5c(c4)OCO5)CC2)n3C)nc1.Cl` showed a melting point of 152 to 160 °C.

As to `CN(C(=O)Nc1ccc(Cl)c(Cl)c1)c1ccc(Oc2ccc3c(c2)cc(C(=O)N2CCN(Cc4ccc5c(c4)OCO5)CC2)n3C)nc1.Cl`, the melting point was 240 to 243 °C. Consider `CN(c1ccc(Oc2ccc3cc(C(=O)N4CCN(Cc5ccc(OCC(F)(F)F)cc5)CC4)n(C)c3c2)nc1)S(=O)(=O)c1ccc(C(F)(F)F)cc1.Cl`, for which the melting point lay within 256.9 to 257.7 °C. Regarding `Cc1ccc(S(=O)(=O)N(C)c2ccc(Oc3ccc4cc(C(=O)N5CCN(Cc6ccc(OCC(F)(F)F)cc6)CC5)n(C)c4c3)nc2)cc1.Cl`, the melting point fell in the range of 246.4 to 247.2 °C.

`CCN(c1ccc(Oc2ccc3cc(C(=O)N4CCN(Cc5ccc(OCC(F)(F)F)cc5)CC4)n(C)c3c2)nc1)S(=O)(=O)c1ccc(Cl)c(Cl)c1.Cl` came in with a melting point of 226.9 to 227.2 °C. `Cc1cc(C)c(S(=O)(=O)Nc2ccc(Oc3ccc4cc(C(=O)N5CCN(Cc6ccc(OCC(F)(F)F)cc6)CC5)n(C)c4c3)nc2)c(C)c1.Cl` came in with a melting point of 191.3 to 192.5 °C.
